Data on two molecules can be found in US10226413B2, “Solution solubilization composition of insoluble material and method for solubilizing insoluble material using same” (Damy Chemical Co., Ltd., priority 2013, dated 2019).

The procedure of this data set:
The turbidity of each lotion was measured using a spectrophotometer at 620 nm. A high turbidity of a liquid indicates cloudiness of the liquid and a low turbidity of a liquid indicates high transparency of the liquid. The turbidity (optical density) of the lotion was measured in the range of 0.01-1.0.
The amount of light passing through each solution was measured. The transmittance (T, %) of the solution for light was calculated as follows. First, the measured absorbance was substituted into -log t=A (absorbance, O.D). Since t is always not greater than 1, the transmittance (T) was calculated and expressed in percentage by T (%)=t×100. The transmittance is between 1 and 100%. The higher the transmittance, the higher the transparency. The transmittance of purified water was defined as 100%.

As to `C[C@@H]1O[C@@H](OC[C@H]2O[C@@H](Oc3c(-c4ccc(O)c(O)c4)oc4cc(O)cc(O)c4c3=O)[C@H](O)[C@@H](O)[C@@H]2O)[C@H](O)[C@H](O)[C@H]1O` [rutin], the “solubilization in water by the composition (turbidity and transmittance)” value was “can solubilize”.

For the molecule `COC1=C(OC)C(=O)C(C/C=C(\C)CC/C=C(\C)CC/C=C(\C)CC/C=C(\C)CC/C=C(\C)CC/C=C(\C)CC/C=C(\C)CC/C=C(\C)CC/C=C(\C)CCC=C(C)C)=C(C)C1=O` [ubiquinone], the “solubilization in water by the composition (turbidity and transmittance)” value is recorded as “can solubilize”.
